Source: US6656459B2, “Compositions of non-ionic block copolymers to treat autoimmune and inflammatory diseases, and to reduce graft/implantation, and methods of use thereof” (priority 2000, dated 2003)

System: Collagen-immunized DBA/I mice
Experiment: collagen-induced arthritis (CIA), frequency and severity of RA symptoms
Assay type: in vivo
Method: The anti-RA efficacy of SP1018R (200 μl of F127 and L61 in a ratio of 8:1 at a concentration of 2.25% ) was compared to that of MTX that was given at a human equivalent dose (0.1 mg/kg i.v.), both drugs were given on day 30 and day 37 after the first immunization with collagen. For induction of severe CIA, mice were primed with 500 μl pristane and immunized at day 14 and 21 by administration of 100 μg colagen type II in Freund's complete adjuvant. The control (placebo) and the treated animals were evaluated for RA severity. RA was graded semi-quantitatively on a scale of 0-4 for each paw: 0=no changes; 0.5=significant swelling and redness on one digit; 1=swelling and erythema of 2 digits; 2=mild swelling and erythema of the limb or swelling of more than 2 digits; 3=marked swelling and erythema of the limb; and 4=maximal swelling and redness of the limb and later, ankylosis. […] Rev. Immunol.
The data shown below represent the maximal frequency (%) of animals having developed symptoms of RA and the frequency of animals still having the symptoms of RA at the end of the study. All Pluronics used in all examples were purchased from BASF Co.
Frequency of RA development at various time points during the course of RA development

[1] = Study NG256, given twice (2X; day 30 and day 37)

SMILES: CN(Cc1cnc2nc(N)nc(N)c2n1)c1ccc(C(=O)N[C@@H](CCC(=O)O)C(=O)O)cc1 [MTX, methotrexate]
- RA severity, clinical disease symptoms (scale of 0-4 for each paw) (SP1018R 200 μl, MTX 0.1 mg/kg i.v., day 30 and day 37 after first immunization): slight therapeutic effect
- frequency of animals still having the symptoms of RA at the end of the study [1]: 100%
- maximal frequency (%) of animals having developed symptoms of RA [1]: MTX—100%
